Among the data in PMC12947280, “An Antifungal with a Novel Mechanism of Action Discovered via Resistance Gene-Guided Genome Mining” (ACS Central Science, 2026) are EC50 and IC50 values, retold here.

Experiment [1] has as its system A. fumigatus. Kind of experiment: Inhibition of A. fumigatus growth. It counts as cell-based.
In experiment [2] the target is A. fumigatus ALS (Aspergillus fumigatus, UniProt Q4WXQ3). Kind of experiment: ALS biochemical assay (AfALS). As for the experimental part: ALS biochemical assay (AfALS)
Aspergillus fumigatus acetohydroxyacid synthase (AfILV2) lacking the N-terminal mitochondrial-targeting sequence (amino acids 112-752) was overproduced and isolated from E. coli as an N-terminally His6-tagged protein. Assays (50 µL final volume) contained 200 nM His6-AfALS, 8 mM pyruvate, 1 mM thiamine pyrophosphate, and 10 µM flavin adenine dinucleotide, 10 mM MgCl2, 1 mM DTT, 1% DMSO (± inhibitor) in 200 mM KH2PO4 buffer at pH
7.5. Following a 30 min pre-incubation of the enzyme and inhibitor in the reaction mixture at room temperature, reactions were initiated with the addition of pyruvate. AfALS assays were carried out at 30 °C for 120 min. The reaction was quenched with the addition of 5 µL of 10% H2SO4 (v/v in deionized water). Reactions were incubated at 60 °C at incubating microplate shaker for 15 min to convert the product of the ALS reaction, acetolactate, to acetoin.
Subsequently, the concentration of acetoin was determined by the addition of 7.5 µL 6 M NaOH, 25 µL 0.5% creatine (w/v in deionized water), and 25 µL 4% 1-naphthol (w/v in 2.5 M NaOH).
This mixture was incubated at 60 °C in an incubating microplate shaker for 15 min. 40 µL of this reaction mixture was transferred to a half area UV-star 96-well plate (Grenier) and the absorbance at 525 nm was measured on a Spark multimode plate reader (Tecan). The percent inhibition was calculated by the comparison of the signal to DMSO (0% inhibition) and no enzyme (100% inhibition) controls. IC50 values were calculated from the dose response curves using Prism 9 (four parameter, variable slope). […]
(amino acids 58-687) was codon optimized for expression in E. coli and synthesized by […]

Experiment [3] has as its target T1, S. cerevisiae ALS wild type (Saccharomyces cerevisiae, UniProt P07342).
T1 construct: made in house; host or cells: E. coli BL21 (DE3), pET28a-ScILV2
Nature of the experiment: ALS biochemical assay (ScALS), wild type. The protocol: (§1) ALS biochemical assay (ScALS)
(§2) Saccharomyces cerevisiae acetohydroxyacid synthase (ScALS) lacking the N-terminal […]
(§3) Escherichia coli as an N-terminally His6-tagged protein. Assays (50 µL final volume) contained […]
(§4) adenine dinucleotide, 10 mM MgCl2, 1 mM DTT, 1% DMSO (± inhibitor) in 500 mM K2HPO4 buffer at pH 7.5. Following a 30 min pre-incubation of the enzyme and inhibitor in the reaction mixture at room temperature, reactions were initiated with the addition of pyruvate. ScALS assays were carried out at 30 °C for 60 min. The reaction was quenched with the addition of 5 µL of 10% H2SO4 (v/v in deionized water). Reactions were incubated at 60 °C at 800 rpm in an […]
(§5) to acetoin. Subsequently, the concentration of acetoin was determined by the addition of 7.5 µL 6 M NaOH, 25 µL 0.5% creatine (w/v in deionized water), and 25 µL 4% 1-naphthol (w/v in 2.5 M NaOH). This mixture was incubated at 60 °C at 800 rpm in an incubating microplate shaker for […]
(§6) 40 µL of this reaction mixture was transferred to a half area UV-star 96-well plate (Grenier) and the absorbance at 525 nm was measured on a Spark multimode plate reader (Tecan). The percent inhibition was calculated by the comparison of the signal to DMSO (0% […]
(§7) IC50 values were calculated from the dose response curves using Prism 9 (four parameter, variable slope). […]
(§8) Expression and purification of ScALS
(§9) S. cerevisiae ILV2 (the gene or ScALS) lacking the N-terminal mitochondrial-localization tag

Experiment [4] has as its target C. albicans ALS (Candida albicans, UniProt A0A1D8PJF9). Kind of experiment: ALS biochemical assay (CaALS).
The target of experiment [5] is T2, S. cerevisiae ALS P192S (Saccharomyces cerevisiae, UniProt P07342, P192S).
T2 construct: His6 (followed by a TEV protease site, pET28a) (N); made in house; host or cells: E. coli (inferred from the ScALS method)
Nature of the experiment: biochemical. Type of experiment: biochemical. As for the experimental part: as §1, §2, §3, §4, §5, §6, §7, §8, §9

The mark [6] stands for this setting: Aspergillus fumigatus; read-out: A. fumigatus growth inhibition EC50 (Figure 4A).
The mark [7] stands for this setting: Aspergillus fumigatus; read-out: A. fumigatus growth inhibition IC50.

What is called EC50 is the concentration needed to bring the measured effect to its halfway point. Broadly, the IC50 is the concentration that inhibits the measured activity by half.

Read-outs that look alike come from different tables or passages of the source.

Chain of C. albicans ALS (A0A1D8PJF9 entry or part of it): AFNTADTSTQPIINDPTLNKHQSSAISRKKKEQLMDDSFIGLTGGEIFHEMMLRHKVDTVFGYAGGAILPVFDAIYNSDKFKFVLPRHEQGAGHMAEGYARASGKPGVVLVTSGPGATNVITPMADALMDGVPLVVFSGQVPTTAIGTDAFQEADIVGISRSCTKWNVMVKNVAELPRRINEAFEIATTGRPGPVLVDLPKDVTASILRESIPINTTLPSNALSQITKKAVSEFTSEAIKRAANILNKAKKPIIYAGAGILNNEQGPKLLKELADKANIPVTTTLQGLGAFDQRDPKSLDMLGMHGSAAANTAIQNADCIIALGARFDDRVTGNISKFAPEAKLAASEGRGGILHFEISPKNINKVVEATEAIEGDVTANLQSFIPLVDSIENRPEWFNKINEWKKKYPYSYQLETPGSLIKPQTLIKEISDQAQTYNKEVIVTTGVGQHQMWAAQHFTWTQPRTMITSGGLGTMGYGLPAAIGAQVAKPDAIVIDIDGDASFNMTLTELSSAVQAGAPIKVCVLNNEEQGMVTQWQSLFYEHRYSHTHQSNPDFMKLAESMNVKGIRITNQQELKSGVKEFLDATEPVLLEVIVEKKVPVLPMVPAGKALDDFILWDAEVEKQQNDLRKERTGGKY
Chain of A. fumigatus ALS (Q4WXQ3 entry or part of it): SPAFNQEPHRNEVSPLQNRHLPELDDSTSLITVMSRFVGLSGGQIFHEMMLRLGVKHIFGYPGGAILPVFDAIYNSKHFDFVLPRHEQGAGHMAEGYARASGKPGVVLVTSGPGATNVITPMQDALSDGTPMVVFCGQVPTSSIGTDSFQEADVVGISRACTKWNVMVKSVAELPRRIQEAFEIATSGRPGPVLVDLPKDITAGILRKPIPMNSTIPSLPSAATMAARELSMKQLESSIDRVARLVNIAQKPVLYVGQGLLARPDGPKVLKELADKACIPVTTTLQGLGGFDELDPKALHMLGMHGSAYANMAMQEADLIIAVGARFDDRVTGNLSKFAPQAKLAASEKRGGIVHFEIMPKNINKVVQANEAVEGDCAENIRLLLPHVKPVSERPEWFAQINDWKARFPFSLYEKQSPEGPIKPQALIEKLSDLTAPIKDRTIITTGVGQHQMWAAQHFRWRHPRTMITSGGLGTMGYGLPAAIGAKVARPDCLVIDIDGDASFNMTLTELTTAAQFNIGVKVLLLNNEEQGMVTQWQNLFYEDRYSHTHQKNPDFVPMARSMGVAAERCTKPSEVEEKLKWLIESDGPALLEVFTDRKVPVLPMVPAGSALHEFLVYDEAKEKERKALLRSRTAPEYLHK
T1 sequence (P07342 58-687): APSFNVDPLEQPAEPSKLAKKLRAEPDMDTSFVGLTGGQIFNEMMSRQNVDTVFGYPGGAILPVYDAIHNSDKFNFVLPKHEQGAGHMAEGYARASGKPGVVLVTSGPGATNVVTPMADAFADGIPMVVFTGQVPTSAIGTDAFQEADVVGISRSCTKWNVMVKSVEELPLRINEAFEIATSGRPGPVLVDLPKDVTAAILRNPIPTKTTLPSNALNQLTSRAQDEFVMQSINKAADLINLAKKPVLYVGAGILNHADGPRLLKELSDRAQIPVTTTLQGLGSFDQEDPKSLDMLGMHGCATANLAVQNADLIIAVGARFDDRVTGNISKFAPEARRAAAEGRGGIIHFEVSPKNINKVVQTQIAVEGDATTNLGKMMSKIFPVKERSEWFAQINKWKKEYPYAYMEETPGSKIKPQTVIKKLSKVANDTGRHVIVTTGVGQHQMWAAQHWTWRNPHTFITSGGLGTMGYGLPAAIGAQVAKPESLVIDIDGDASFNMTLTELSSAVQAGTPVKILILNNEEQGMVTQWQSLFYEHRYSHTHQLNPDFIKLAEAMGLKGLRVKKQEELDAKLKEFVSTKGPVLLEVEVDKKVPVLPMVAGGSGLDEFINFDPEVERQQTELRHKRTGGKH
T2 sequence (P07342 58-687 P192S): as the sequence (P07342 58-687) above, with P135S counted along it

Regarding `C[C@@H](c1ncncc1F)[C@](O)(Cn1cncn1)c1ccc(F)cc1F` [Voriconazole, voriconazole], the EC50 in experiment [1] (setting [6]) worked out at 0.5 ± 0.2 µM. Besides, the IC50 in experiment [1] (setting [7]) stood at 0.5 µM.
For `COc1cnc(OC)n2nc(NS(=O)(=O)c3c(OCC(F)F)cccc3C(F)(F)F)nc12` [compound 3, penoxsulam], the IC50 stood at 0.5 ± 0.2 nM in experiment [2]; 0.4 ± 0.2 nM in experiment [3]; 25 µM in experiment [1] (setting [7]); 3.4 ± 0.6 nM in experiment [4]; 150 ± 30 nM in experiment [5]. Besides, the EC50 in experiment [1] (setting [6]) worked out at 23 ± 7 µM.
As for `COC(=O)c1ccccc1CS(=O)(=O)NC(=O)Nc1nc(OC)cc(OC)n1` [compound 2, bensulfuron methyl], the figures for the IC50 in experiment [2], in experiment [1] (setting [7]) and in experiment [4] were 100 ± 20 nM, 200 µM and 30 ± 4 nM, respectively. The EC50 in experiment [1] (setting [6]) was 57 ± 20 µM.
With `COc1cc(OC)nc(Oc2cccc(Oc3nc(OC)cc(OC)n3)c2C(=O)O)n1` [compound 4, bispyribac, reference compound], in experiment [3] (recombinant ScALS, read-out: S. cerevisiae ALS IC50 Wild type), the IC50 is 600 ± 100 nM.
In the case of `CCOC(=O)c1ccccc1S(=O)(=O)NC(=O)Nc1nc(Cl)cc(OC)n1` [compound 5, chlormuron ethyl], the IC50 in experiment [2] came to 11 ± 3 nM; in experiment [1] (Aspergillus fumigatus, read-out: A. fumigatus growth inhibition IC50) it was 90 µM; in experiment [4] (recombinant CaALS, read-out: ALS IC50 C. albicans) it was 27 ± 5 nM. In experiment [1] (Aspergillus fumigatus, read-out: A. fumigatus growth inhibition EC50 (Figure 4A)), the EC50 worked out at 80 ± 30 µM.
